{"source": "patent US11104674B2", "about": "(Hoffmann-La Roche Inc., priority 2016, dated 2021)", "data": [{"test_system": "HBV DNA", "experiment": "HBV DNA assay (real-time qPCR of extracellular HBV DNA)", "type": "cell-based", "conditions": "Hepatitis B virus, 144 h; Anti HBV DNA production activity in HepG2.2.15 cells; supernatant collected six days after treatment", "description": "HepG2.2.15 cells (Acs et al. Proc Natl Acad Sci USA, 84, (1987), 4641-4), a constitutively HBV-expressing cell line were cultured in DMEM+Glutamax-I medium (Invitrogen, Carlsbad, Calif., USA), supplemented with 10% fetal bovine serum (Invitrogen) and G418 (Invitrogen) at a final concentration of 200 mg/L and maintained in 5% CO2 at 37° C.\nThe assay employs real-time qPCR (TaqMan) to directly measure extracellular HBV DNA copy number in the cell supernatant. HepG2.2.15 cells were plated in 96-well microtiter plates before treatment with complete medium (DMEM, Glutamax, 10% FBS, 1% Penicillin/Streptomycin, 250 μg/mL Genetycin, final DMSO concentration is 1%/o). Only the interior wells were utilized to reduce “edge effects” observed during cell culture, the exterior wells were filled with complete medium to help minimize sample evaporation. The HepG2.2.15 cells were treated 1 h later with various concentrations of a test compound in duplicate (top concentration used at 5 μM, 2 μM or 0.5 μM according to the HBsAg IC50 observed, with ⅓ successive dilutions (total of 10 dilutions). Six days following the initial administration of the test compound, the cell culture supernatant was collected; DNA extraction was performed by automated system (Magnapure) and then used in a real-time qPCR/TaqMan assay to determine HBV DNA copy numbers. Antiviral activity was calculated from the reduction in HBV DNA levels (IC50).\nThe compounds of the present invention were tested for their capacity to inhibit HBV DNA as described herein.", "units": {"IC50": "nM"}, "values": [{"compound": "COC1CCN(c2cc(F)nc(N3CCc4nc(-c5ncccn5)ncc4C3C)c2)C1", "note": "(centres unmarked) [Example 20, 6-[6-fluoro-4-(3-methoxypyrrolidin-1-yl)-2-pyridyl]-5-methyl-2-pyrimidin-2-yl-7,8-dihydro-5H-pyrido[4,3-d]pyrimidine]", "IC50": 0.15}]}, {"test_system": "HBsAg", "experiment": "HBsAg assay (chemiluminescence immunoassay of secreted HBsAg)", "type": "cell-based, HBV", "conditions": "Hepatitis B virus, HepG2.2.15, HBsAg secretion, HepG2.2.15 cells, CLIA of culture supernatant", "in_short": "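HepG2.2.15 cells, in duplicate, treated with three-fold serial compound dilutions (1% DMSO final); secreted HBsAg in supernatant quantified by chemiluminescence immunoassay; IC50 is the concentration reducing HBsAg secretion by 50% versus the DMSO control.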", "units": {"IC50": "nM"}, "values": [{"compound": "COC1CCN(c2cc(F)nc(N3CCc4nc(-c5ncccn5)ncc4C3C)c2)C1", "note": "(centres unmarked) [Example 20, 6-[6-fluoro-4-(3-methoxypyrrolidin-1-yl)-2-pyridyl]-5-methyl-2-pyrimidin-2-yl-7,8-dihydro-5H-pyrido[4,3-d]pyrimidine]", "IC50": 10}, {"compound": "CC1c2cnc(-c3ncccn3)nc2CCN1c1cc(NCCCCC(N)=O)cc(F)n1", "note": "(centres unmarked) [Example 137, 5-[[2-Fluoro-6-(5-methyl-2-pyrimidin-2-yl-7,8-dihydro-5H-pyrido[4,3-d]pyrimidin-6-yl)-4-pyridyl]amino]pentanamide]", "IC50": 120}, {"compound": "CC1c2cnc(-c3ncccn3)nc2CCN1c1cc(NC2CCS(=O)(=O)CC2)cc(F)n1", "note": "(centres unmarked) [Example 138, N-(1,1-dioxothian-4-yl)-2-fluoro-6-(5-methyl-2-pyrimidin-2-yl-7,8-dihydro-5H-pyrido[4,3-d]pyrimidin-6-yl)pyridin-4-amine]", "IC50": 663}, {"compound": "CC(=O)N1CC(Nc2cc(F)cc(N3CCc4nc(-c5ncccn5)ncc4C3C)n2)C1", "note": "(centres unmarked) [Example 139, 1-[3-[[4-fluoro-6-(5-methyl-2-pyrimidin-2-yl-7,8-dihydro-5H-pyrido[4,3-d]pyrimidin-6-yl)-2-pyridyl]amino]azetidin-1-yl]ethanone]", "IC50": 1550}, {"compound": "CC(=O)N1CC(Nc2cc(F)nc(N3CCc4nc(-c5ncccn5)ncc4C3C)c2)C1", "note": "(centres unmarked) [Example 140, 1-[3-[[2-fluoro-6-(5-methyl-2-pyrimidin-2-yl-7,8-dihydro-5H-pyrido[4,3-d]pyrimidin-6-yl)-4-pyridyl]amino]azetidin-1-yl]ethanone]", "IC50": 972}, {"compound": "CC1c2cnc(-c3ncccn3)nc2CCN1c1cc(N(C)CCCCC(N)=O)cc(F)n1", "note": "(centres unmarked) [Example 141, 5-[[2-fluoro-6-(5-methyl-2-pyrimidin-2-yl-7,8-dihydro-5H-pyrido[4,3-d]pyrimidin-6-yl)-4-pyridyl]-methyl-amino]pentanamide]", "IC50": 43}, {"compound": "CC1c2cnc(-c3ncccn3)nc2CCN1c1cc(F)cc(N(C)CCCCC(N)=O)n1", "note": "(centres unmarked) [Example 142, 5-[[4-fluoro-6-(5-methyl-2-pyrimidin-2-yl-7,8-dihydro-5H-pyrido[4,3-d]pyrimidin-6-yl)-2-pyridyl]-methyl-amino]pentanamide]", "IC50": 25}, {"compound": "CC1c2cnc(-c3ncccn3)nc2CCN1c1cc(N(CCCCC(N)=O)CC2CC2)cc(F)n1", "note": "(centres unmarked) [Example 143, 5-[Cyclopropylmethyl-[2-fluoro-6-(5-methyl-2-pyrimidin-2-yl-7,8-dihydro-5H-pyrido[4,3-d]pyrimidin-6-yl)-4-pyridyl]amino]pentanamide]", "IC50": 176}, {"compound": "CC1c2cnc(-c3ncccn3)nc2CCN1c1cc(N2CC(C#N)C2)cc(F)n1", "note": "(centres unmarked) [Example 144, 1-[2-Fluoro-6-(5-methyl-2-pyrimidin-2-yl-7,8-dihydro-5H-pyrido[4,3-d]pyrimidin-6-yl)-4-pyridyl]azetidine-3-carbonitrile]", "IC50": 28}, {"compound": "CC1c2cnc(-c3ncccn3)nc2CCN1c1cc(N2CC(C(=O)O)CC2=O)cc(F)n1", "note": "(centres unmarked) [Example 145, 1-[2-Fluoro-6-(5-methyl-2-pyrimidin-2-yl-7,8-dihydro-5H-pyrido[4,3-d]pyrimidin-6-yl)-4-pyridyl]-5-oxo-pyrrolidine-3-carboxylic acid]", "IC50": 5340}, {"compound": "CC1c2cnc(-c3ncccn3)nc2CCN1c1cc(N2CCS(=O)(=O)CC2)cc(F)n1", "note": "(centres unmarked) [Example 146, 4-[2-Fluoro-6-(5-methyl-2-pyrimidin-2-yl-7,8-dihydro-5H-pyrido[4,3-d]pyrimidin-6-yl)-4-pyridyl]-1,4-thiazinane1,1-dioxide]", "IC50": 38}, {"compound": "CC1c2cnc(-c3ncccn3)nc2CCN1c1cc(F)nc(N2CCC2)c1", "note": "(centres unmarked) [Example 147, 6-[2-(Azetidin-1-yl)-6-fluoro-4-pyridyl]-5-methyl-2-pyrimidin-2-yl-7,8-dihydro-5H-pyrido[4,3-d]pyrimidine]", "IC50": 18}, {"compound": "COC1CN(c2cc(N3CCc4nc(-c5ncccn5)ncc4C3C)cc(F)n2)C1", "note": "(centres unmarked) [Example 148, 6-[2-Fluoro-6-(3-methoxyazetidin-1-yl)-4-pyridyl]-5-methyl-2-pyrimidin-2-yl-7,8-dihydro-5H-pyrido[4,3-d]pyrimidine]", "IC50": 21}, {"compound": "CC1c2cnc(-c3ncccn3)nc2CCN1c1cc(F)nc(N2CC(F)(F)C2)c1", "note": "(centres unmarked) [Example 149, 6-[2-(3,3-Difluoroazetidin-1-yl)-6-fluoro-4-pyridyl]-5-methyl-2-pyrimidin-2-yl-7,8-dihydro-5H-pyrido[4,3-d]pyrimidine]", "IC50": 20}, {"compound": "CC1c2cnc(-c3ncccn3)nc2CCN1c1cc(F)nc(N2CC(F)C2)c1", "note": "(centres unmarked) [Example 150, 6-[2-Fluoro-6-(3-fluoroazetidin-1-yl)-4-pyridyl]-5-methyl-2-pyrimidin-2-yl-7,8-dihydro-5H-pyrido[4,3-d]pyrimidine]", "IC50": 20}, {"compound": "CC1c2cnc(-c3ncccn3)nc2CCN1c1cc(N2CC3(COC3)CC2=O)cc(F)n1", "note": "(centres unmarked) [Example 151, 7-[2-Fluoro-6-(5-methyl-2-pyrimidin-2-yl-7,8-dihydro-5H-pyrido[4,3-d]pyrimidin-6-yl)-4-pyridyl]-2-oxa-7-azaspiro[3.4]octan-6-one]", "IC50": 27}, {"compound": "CC1CCN(c2cc(F)nc(N3CCc4nc(-c5ncccn5)ncc4C3C)c2)C1=O", "note": "(centres unmarked) [Example 152, 1-[2-Fluoro-6-(5-methyl-2-pyrimidin-2-yl-7,8-dihydro-5H-pyrido[4,3-d]pyrimidin-6-yl)-4-pyridyl]-3-methyl-pyrrolidin-2-one]", "IC50": 3}, {"compound": "CC1c2cnc(-c3ncccn3)nc2CCN1c1cc(N2CC(CO)CC2=O)cc(F)n1", "note": "(centres unmarked) [Example 153, 1-[2-Fluoro-6-(5-methyl-2-pyrimidin-2-yl-7,8-dihydro-5H-pyrido[4,3-d]pyrimidin-6-yl)-4-pyridyl]-4-(hydroxymethyl)pyrrolidin-2-one]", "IC50": 32}, {"compound": "CC(=O)N(C)c1cc(F)nc(N2CCc3nc(-c4ncccn4)ncc3C2C)c1", "note": "(centres unmarked) [Example 154, N-[2-Fluoro-6-(5-methyl-2-pyrimidin-2-yl-7,8-dihydro-5H-pyrido[4,3-d]pyrimidin-6-yl)-4-pyridyl]-N-methyl-acetamide]", "IC50": 69}, {"compound": "CCC(=O)N(C)c1cc(F)nc(N2CCc3nc(-c4ncccn4)ncc3C2C)c1", "note": "(centres unmarked) [Example 155, N-[2-Fluoro-6-(5-methyl-2-pyrimidin-2-yl-7,8-dihydro-5H-pyrido[4,3-d]pyrimidin-6-yl)-4-pyridyl]-N-methyl-propanamide]", "IC50": 86}, {"compound": "CC1c2cnc(-c3ncccn3)nc2CCN1c1cc(N(C)C(=O)C2CC2)cc(F)n1", "note": "(centres unmarked) [Example 156, N-[2-Fluoro-6-(5-methyl-2-pyrimidin-2-yl-7,8-dihydro-5H-pyrido[4,3-d]pyrimidin-6-yl)-4-pyridyl]-N-methyl-cyclopropanecarboxamide]", "IC50": 30}, {"compound": "CC1c2cnc(-c3ncccn3)nc2CCN1c1cc(N2CCNC2=O)cc(F)n1", "note": "(centres unmarked) [Example 157, 1-[2-Fluoro-6-(5-methyl-2-pyrimidin-2-yl-7,8-dihydro-5H-pyrido[4,3-d]pyrimidin-6-yl)-4-pyridyl]imidazolidin-2-one]", "IC50": 6}, {"compound": "CC1c2cnc(-c3ncccn3)nc2CCN1c1cc(F)nc(N2CC3(COC3)C2)c1", "note": "(centres unmarked) [Example 158, 6-[6-Fluoro-4-(5-methyl-2-pyrimidin-2-yl-7,8-dihydro-5H-pyrido[4,3-d]pyrimidin-6-yl)-2-pyridyl]-2-oxa-6-azaspiro[3.3]heptane]", "IC50": 48}, {"compound": "CC1c2cnc(-c3ncccn3)nc2CCN1c1cc(N(C)S(C)(=O)=O)cc(F)n1", "note": "(centres unmarked) [Example 159, N-[2-fluoro-6-(5-methyl-2-pyrimidin-2-yl-7,8-dihydro-5H-pyrido[4,3-d]pyrimidin-6-yl)-4-pyridyl]-N-methyl-methanesulfonamide]", "IC50": 14}, {"compound": "CC1c2cnc(-c3ncccn3)nc2CCN1c1cc(N(C)S(=O)(=O)C2CC2)cc(F)n1", "note": "(centres unmarked) [Example 160, N-[2-fluoro-6-(5-methyl-2-pyrimidin-2-yl-7,8-dihydro-5H-pyrido[4,3-d]pyrimidin-6-yl)-4-pyridyl]-N-methyl-cyclopropanesulfonamide]", "IC50": 6}, {"compound": "CC1c2cnc(-c3ncccn3)nc2CCN1c1cc(N(C)S(=O)(=O)c2ccccc2)cc(F)n1", "note": "(centres unmarked) [Example 161, N-[2-Fluoro-6-(5-methyl-2-pyrimidin-2-yl-7,8-dihydro-5H-pyrido[4,3-d]pyrimidin-6-yl)-4-pyridyl]-N-methyl-benzenesulfonamide]", "IC50": 5}, {"compound": "CC1c2cnc(-c3ncccn3)nc2CCN1c1cc(N2CCCCS2(=O)=O)cc(F)n1", "note": "(centres unmarked) [Example 162, 2-[2-Fluoro-6-(5-methyl-2-pyrimidin-2-yl-7,8-dihydro-5H-pyrido[4,3-d]pyrimidin-6-yl)-4-pyridyl]thiazinane1,1-dioxide]", "IC50": 15}, {"compound": "CC1c2cnc(-c3ncccn3)nc2CCN1c1cc(N(C)C(=O)c2ccccc2)cc(F)n1", "note": "(centres unmarked) [Example 163, N-[2-Fluoro-6-(5-methyl-2-pyrimidin-2-yl-7,8-dihydro-5H-pyrido[4,3-d]pyrimidin-6-yl)-4-pyridyl]-N-methyl-benzamide]", "IC50": 91}]}]}
